Columns and labels:
[1] = target: T1, Avi-KRAS WT (1-169) GppNHp/RAF1 RBD-3xFLAG (52-151) (Homo sapiens, UniProt P01116); test: Raf1-KRAS WT-GppNHP disruption HTRF assay (Biological Example 1); type: binding; details: KRAS WT, GppNHp-loaded; Table 11
T1 construct: Avi-KRAS WT (1-169)
Description: (§1) A protein:protein interaction (PPI) Homogeneous Time Resolved Fluorescence (HTRF) assay was used to determine the effectiveness of compounds of the present disclosure in disrupting KRAS protein and effector RAF1 binding.
(§2) The assay buffer included: 50 mM Tris pH 7.5, 100 mM NaCl, 5 mM MgCl2, 0.1% BSA, 0.01% Tween, and 10% DMSO. The bead buffer included: 50 mM Tris pH 7.5, and 0.01% Tween 20. Assay volume of 20 μL was used in a 384 well plate-low volume format.
(§3) The HTRF assay employed the following protocol:
(§4) Protein mix was prepared in assay buffer, and dispensed on plates, 10 μL per well, then incubated for 1 h at room temperature, with 700 rpm shaking, Reagents mix was prepared and dispensed on plates, 10 μL per well, then incubated for 1 h at room temperature, with 700 rpm shaking.
(§5) Data was reported as percentage of activity, with DMSO as 100%. Data was plotted and analyzed using Prism 8.

[2] = target: T2, Avi-KRAS G12V (1-169) GppNHp/RAF1 RBD-3xFLAG (52-151) (Homo sapiens, UniProt P01116, G12V); test: Raf1-KRAS G12V-GppNHP disruption HTRF assay (Biological Example 1); type: binding; details: KRAS G12V, GppNHp-loaded; Table 11
T2 construct: Avi-KRAS G12V (1-169)
T2 sequence (P01116 1-169 isoform P01116-2 G12V): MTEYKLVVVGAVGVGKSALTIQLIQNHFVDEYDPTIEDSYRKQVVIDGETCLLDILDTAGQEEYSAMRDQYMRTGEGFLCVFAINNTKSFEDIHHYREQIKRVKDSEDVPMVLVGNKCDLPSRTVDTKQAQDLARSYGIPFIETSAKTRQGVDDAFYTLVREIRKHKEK
Description: as §1, §2, §3, §4, §5

[3] = target: T3, Avi-KRAS G12D (1-169) GppNHp/RAF1 RBD-3xFLAG (52-151) (Homo sapiens, UniProt P01116, G12D); test: Raf1-KRAS G12D-GppNHP disruption HTRF assay (Biological Example 1); type: binding; details: KRAS G12D, GppNHp-loaded; Table 11
T3 construct: Avi-KRAS G12D (1-169)
T3 sequence (P01116 1-169 isoform P01116-2 G12D): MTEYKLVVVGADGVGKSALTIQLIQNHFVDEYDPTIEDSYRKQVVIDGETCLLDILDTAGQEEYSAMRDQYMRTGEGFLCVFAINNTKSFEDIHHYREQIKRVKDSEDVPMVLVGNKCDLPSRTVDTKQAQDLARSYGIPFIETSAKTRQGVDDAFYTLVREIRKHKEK
Description: as §1, §2, §3, §4, §5

[4] = target: T4, Avi-KRAS G12R (1-169) GppNHp/RAF1 RBD-3xFLAG (52-151) (Homo sapiens, UniProt P01116, G12R); test: Raf1-KRAS G12R-GppNHP disruption HTRF assay (Biological Example 1); type: binding; details: KRAS G12R, GppNHp-loaded; Table 11
T4 construct: Avi-KRAS G12R (1-169)
T4 sequence (P01116 1-169 isoform P01116-2 G12R): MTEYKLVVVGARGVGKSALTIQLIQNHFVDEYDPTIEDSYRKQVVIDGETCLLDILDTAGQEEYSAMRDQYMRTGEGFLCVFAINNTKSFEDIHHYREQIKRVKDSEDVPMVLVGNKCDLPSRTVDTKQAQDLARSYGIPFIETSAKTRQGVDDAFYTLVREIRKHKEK
Description: as §1, §2, §3, §4, §5

[5] = system: GP2d cells (KRAS G12D); test: Cell-based pERK HTRF assay in GP2d cell (Biological Example 2); details: GP2d, GP2d (KRAS G12D) cells, pERK HTRF
Description: A pERK assay (Perkin Elmer) was used to determine the effectiveness of compounds in disrupting KRAS G12D protein/effector signaling in cells.
On Day 1, cells (GP2d) were seeded into 96-well plates at 3×10^4 cells/well in 80 μL complete growth media (DMEM, 10% FBS).
On Day 2, cells were treated with compounds at 0.25% DMSO. The source plate was created with compounds diluted in media at 5-fold the final assay concentration. The compounds were run in a 9-point concentration curve starting at 1 μM or in a 9-point concentration curve starting at 100 nM, with a half-log dilution between concentrations. Twenty μL was transferred onto the cell plates (final volume in wells was 100 μL). Plates were harvested after 60 min incubation by aspirating media and adding kit-supplied 1x supplemented lysis buffer to all wells (50 μL per well). Plates were then placed on a plate shaker and incubated at 850 rpm for an additional 30 min.
Antibody mixture solution was prepared by diluting aliquoted d2 and Eu Cryptate antibodies 1:20 in kit supplied detection buffer, and mixing the diluted antibodies solutions (1:1 v:v).
Samples were homogenized by pipetting up and down and then transferred (16 μL of cell lysates) from the 96-well cell culture plate to two wells of the HTRF 384-well detection plate containing the antibody solution. Plates were centrifuged (524 g for 1 min) and allowed to incubate between 4 and 24 h at room temperature. Maximum signal is reached after 4 h incubation time and remains stable over a period of 24 hours. Therefore, readings can be made between 4 and 24 h of incubation. Plates were centrifuged again (524 g for Imin), then analyzed on the EnVision plate reader using the following settings: Excitation 320 nm, Bandwidth 75 nm; Emission 615 nm, Bandwidth 85 nm; Gain 100%; Flashes 100; Lag 60 μs.

T1 sequence (P01116 1-169 isoform P01116-2): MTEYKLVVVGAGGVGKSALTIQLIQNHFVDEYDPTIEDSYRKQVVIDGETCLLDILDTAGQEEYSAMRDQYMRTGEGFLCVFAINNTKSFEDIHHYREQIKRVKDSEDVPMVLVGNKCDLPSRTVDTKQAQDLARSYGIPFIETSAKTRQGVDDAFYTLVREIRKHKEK

Q: With `CN(c1nc(OC[C@@]23CCCN2C[C@H](F)C3)nc2c(F)c(-c3ccc(F)c4sc(N)nc34)c(C(F)(F)F)cc12)[C@H]1C[C@@H](O)C1` (atropisomer, axis not shown) [Compound 8] as the compound, how does the IC50 [1] read?
A: The IC50 was 100 to 1000 nM.

Q: And the IC50 [2]?
A: Its IC50 is 100 to 1000 nM.

Q: And the IC50 [3]?
A: Its IC50 is 100 to 1000 nM.

Q: What about the IC50 [4] of the same compound?
A: Its IC50 is 1000 to 10000 nM.

Q: `CN(c1nc(OCC2(CN3CCOCC3)CC2)nc2c(F)c(-c3ccc(F)c4sc(N)nc34)c(C(F)(F)F)cc12)[C@H]1C[C@@H](O)C1` (atropisomer, axis not shown) [Compound 16] was tested. Which IC50 [1] did it give?
A: Its IC50 is 1000 to 10000 nM.

Q: What about the IC50 [2] of the same compound?
A: The IC50 was 1000 to 10000 nM.

Q: What about the IC50 [3] of the same compound?
A: Its IC50 is 1000 to 10000 nM.

Q: And the IC50 [4]?
A: The IC50 was 1000 to 10000 nM.

Q: `Nc1nc2c(-c3c(C(F)(F)F)cc4c(N[C@H]5CC[C@H](O)C5)nc(OCC56CCCN5CCC6)nc4c3F)ccc(F)c2s1` (atropisomer, axis not shown) [Compound 61] was tested. Which IC50 [1] did it give?
A: Its IC50 is 1000 to 10000 nM.

Q: What about the IC50 [2] of the same compound?
A: Its IC50 is greater than 10000 nM.

Q: And the IC50 [3]?
A: Its IC50 is 1000 to 10000 nM.

Q: What does the source list for `CN(c1nc(OCC23CCCN2CCC3)nc2c(F)c(-c3ccc(F)c4sc(N)nc34)c(C(F)(F)F)cc12)[C@@H]1CC[C@H](O)C1` (atropisomer, axis not shown) [Compound 62]?
A: IC50 [1]: 1000 to 10000 nM; IC50 [2]: > 10000 nM; IC50 [3]: 1000 to 10000 nM; IC50 [4]: 1000 to 10000 nM

Q: With `Nc1nc2c(-c3c(C(F)(F)F)cc4c(N[C@H]5CCC[C@@H](O)C5)nc(OCC56CCCN5CCC6)nc4c3F)ccc(F)c2s1` (atropisomer, axis not shown) [Compound 67] as the compound, how does the IC50 [1] read?
A: Its IC50 is 1000 to 10000 nM.

Q: And the IC50 [2]?
A: The IC50 was greater than 10000 nM.

Q: What about the IC50 [3] of the same compound?
A: Its IC50 is 1000 to 10000 nM.

Q: `CN(c1nc(OCC2(CN3CCOCC3)CC2)nc2c(F)c(-c3ccc(F)c4sc(N)c(C#N)c34)c(C(F)(F)F)cc12)[C@H]1C[C@@H](O)C1` (atropisomer, axis not shown) [Compound 122] was tested. Which IC50 [1] did it give?
A: Its IC50 is 100 to 1000 nM.

Q: What about the IC50 [2] of the same compound?
A: Its IC50 is 100 to 1000 nM.

Q: What about the IC50 [3] of the same compound?
A: Its IC50 is 100 to 1000 nM.

Q: And the IC50 [4]?
A: Its IC50 is 100 to 1000 nM.

Q: For `CN(c1nc(OC[C@@]23CCCN2C[C@H](F)C3)nc2c(F)c(-c3ccc(F)c4sc(N)c(C#N)c34)c(C(F)(F)F)cc12)[C@H]1C[C@@H](F)C1` (atropisomer, axis not shown) [Compound 160], which IC50 [1] is on record?
A: The IC50 was 100 to 1000 nM.

Q: And the IC50 [2]?
A: Its IC50 is 1000 to 10000 nM.

Q: What about the IC50 [3] of the same compound?
A: The IC50 was 100 to 1000 nM.

Q: And the IC50 [4]?
A: The IC50 was 100 to 1000 nM.

Q: For `CN(c1nc(OC[C@@]23CCCN2C[C@H](F)C3)nc2c(F)c(-c3ccc(F)c4sc(N)c(C#N)c34)c(C(F)(F)F)cc12)[C@]1(CC#N)C[C@H](O)C1` (atropisomer, axis not shown) [Compound 249], which IC50 [1] is on record?
A: Its IC50 is 100 to 1000 nM.

Q: What about the IC50 [2] of the same compound?
A: The IC50 was 1000 to 10000 nM.

Q: What about the IC50 [3] of the same compound?
A: The IC50 was 100 to 1000 nM.

Q: What about the IC50 [4] of the same compound?
A: The IC50 was 100 to 1000 nM.

Q: Which results are given for `CN(c1nc(OCC23CCCN2CCC3)nc2c(F)c(-c3ccc(F)c4sc(N)nc34)c(-c3ccoc3)cc12)[C@H]1C[C@@H](O)C1` [Compound 6]?
A: IC50 [1]: 1000 to 10000 nM; IC50 [2]: > 10000 nM; IC50 [3]: 1000 to 10000 nM

Q: For `Nc1nc2c(-c3c(C(F)(F)F)cc4c(N5CCC(O)CC5)nc(OCC56CCCN5CCC6)nc4c3F)ccc(F)c2s1` [Compound 51], which IC50 [1] is on record?
A: Its IC50 is 1000 to 10000 nM.

Q: And the IC50 [2]?
A: The IC50 was greater than 10000 nM.

Q: And the IC50 [3]?
A: The IC50 was 1000 to 10000 nM.

Q: Which IC50 [1] does the source give for `Nc1nc2c(-c3c(C(F)(F)F)cc4c(N5CC6CCC(C5)C6O)nc(OCC56CCCN5CCC6)nc4c3F)ccc(F)c2s1` (stereo not shown) [Compound 52] here?
A: The IC50 was 1000 to 10000 nM.

Q: What about the IC50 [2] of the same compound?
A: Its IC50 is 1000 to 10000 nM.

Q: What about the IC50 [3] of the same compound?
A: The IC50 was 1000 to 10000 nM.

Q: What does the source list for `Nc1nc2c(-c3c(C(F)(F)F)cc4c(N5CCCC(CO)C5)nc(OCC56CCCN5CCC6)nc4c3F)ccc(F)c2s1` (stereo not shown) [Compound 54]?
A: IC50 [1]: > 10000 nM; IC50 [2]: > 10000 nM; IC50 [3]: 1000 to 10000 nM

Q: For `N#Cc1c(N)sc2c(F)ccc(-c3c(C(F)(F)F)cc4c(N5CC6(CC(O)C6)C5)nc(OC[C@@]56CCCN5C[C@H](F)C6)nc4c3F)c12` [Compound 58], which IC50 [1] is on record?
A: Its IC50 is 100 to 1000 nM.

Q: What about the IC50 [2] of the same compound?
A: The IC50 was 100 to 1000 nM.

Q: And the IC50 [5]?
A: The IC50 was 100 to 1000 nM.

Q: What about the IC50 [3] of the same compound?
A: Its IC50 is 100 to 1000 nM.

Q: `Nc1nc2c(-c3c(C(F)(F)F)cc4c(N[C@H]5CC[C@H](O)CC5)nc(OCC56CCCN5CCC6)nc4c3F)ccc(F)c2s1` [Compound 63] was tested. Which IC50 [1] did it give?
A: The IC50 was 1000 to 10000 nM.

Q: And the IC50 [2]?
A: The IC50 was greater than 10000 nM.

Q: What about the IC50 [3] of the same compound?
A: The IC50 was 1000 to 10000 nM.

Q: How did the IC50 [1] turn out when `CCC(=O)N1C2CCC1CN(c1nc(OC[C@@]34CCCN3C[C@H](F)C4)nc3c(F)c(-c4ccc(F)c5sc(N)nc45)c(C(F)(F)F)cc13)C2` [Compound 97] was run?
A: Its IC50 is greater than 10000 nM.

Q: What about the IC50 [2] of the same compound?
A: Its IC50 is greater than 10000 nM.

Q: And the IC50 [3]?
A: The IC50 was greater than 10000 nM.

From patent publication US20260042764A1, “COMPOSITIONS AND METHODS FOR INHIBITION OF KRAS” (TheRas, Inc., priority 2022, published 2026)
